The text below walks through data of patent US7094581B2, “Hyaluronan synthases and methods of making and using same” (The Board of Regents of the University of Oklahoma, priority 1998, dated 2006).

Read-outs that look alike come from different tables or passages of the source. Some results are limits rather than exact numbers.

Data set [1] deals with seHAS. Briefly: Effect of sulfhydryl reagents on seHAS activity in E. coli membranes. Type of data set: biochemical, Streptococcus equisimilis. The note with it: E. coli membranes with seHAS-H6, 4° C. 1 h, 5 mM NEM, 5 mM IAA, 0.5 mM 5,5′-dithiobis-(2-nitrobenzoic acid), 0.05 mM methylmethanethiosulfonate, 10 mM sodium arsenite. The method, then: (§1) SeHAS is the smallest HAS protein (417 amino acids) and contains four Cys residues. […] To explore the possible role of cysteines in the function of HAS, the activities of seHAS and spHAS were assayed in the presence of different sulfhydryl reagents (Table II). […] The inhibition of each HAS by NEM was examined in more detail with respect to time of incubation and NEM concentration (FIG. 2).
(§2) E. coli SURE cells transformed with plasmids containing various seHAS mutants were grown in LB medium with vigorous shaking at 32° C. to A600 ˜0.8 and induced with 1 mM isopropyl-β-thiogalactoside for 3 h. Cells were harvested and membranes were prepared as described previously. The kinetic constants for HAS were determined at 37° C. in 100 μl of 50 mM sodium and potassium phosphate, pH 7.0, with 20 mM MgCl2, 1 mM DTE, 240 μM UDP-GIcUA, 0.7 μM UDP-[^14C]GIcUA and 0.6–1.0 mM UDP-GIcNAc. in 100 μl of 25 mM sodium and potassium phosphate, pH 7, containing 50 mM NaCl, 20 mM MgCl2, 1 mM dithiothreitol, 1 mM UDP-GIcUA, 0.68 μM UDP-GIcUA and 1 mM UDP-GIcNAc. Some assays also contained 0.1 mM EDTA and 20% glycerol (v/v). To initiate the enzyme reaction, ˜0.5–40 μg of membrane protein was added and the mixtures were gently shaken in a MicroMixer X-36 (Tiatec) at 30° C. for 1–2 h. Reactions were terminated by the addition of SDS to a final concentration of 2% (w/v). The incorporation of radioactive [^14C]GIcUA was determined by descending paper chromatography and the Km and Vmax values were determined as described by Tlapak-Simmons et al (1999b). Data were analyzed by the methods of Michaelis-Menton or Hill. Protein content was determined by the method of Bradford using bovine serum albumin as the standard. All Cys-mutant or sulfhydryl-treated seHAS samples were assayed in duplicate or triplicate using two or three independent membrane preparations. […] All enzyme assays were performed under conditions that were linear with respect to time and protein concentration.
(§3) Stock solutions (10–100 mM) of NEM, IAA or other sulfhydryl reagents were made in PBS, pH 7.0. Suspensions of membranes containing seHAS or spHAS were incubated with 0–5 mM of the sulfhydryl reagent at 4° C. and the reactions were stopped by adding DTE to a final concentration of 10 mM. The membranes were then assayed for HAS activity as described above.

Data set [2] concerns the target T1, spHAS (Streptococcus pyogenes serotype M6, UniProt Q5X9A9).
T1 construct: made in house; host or cells: E. coli SURE cells (isolated membranes)
T1 sequence (Q5X9A9 1-419): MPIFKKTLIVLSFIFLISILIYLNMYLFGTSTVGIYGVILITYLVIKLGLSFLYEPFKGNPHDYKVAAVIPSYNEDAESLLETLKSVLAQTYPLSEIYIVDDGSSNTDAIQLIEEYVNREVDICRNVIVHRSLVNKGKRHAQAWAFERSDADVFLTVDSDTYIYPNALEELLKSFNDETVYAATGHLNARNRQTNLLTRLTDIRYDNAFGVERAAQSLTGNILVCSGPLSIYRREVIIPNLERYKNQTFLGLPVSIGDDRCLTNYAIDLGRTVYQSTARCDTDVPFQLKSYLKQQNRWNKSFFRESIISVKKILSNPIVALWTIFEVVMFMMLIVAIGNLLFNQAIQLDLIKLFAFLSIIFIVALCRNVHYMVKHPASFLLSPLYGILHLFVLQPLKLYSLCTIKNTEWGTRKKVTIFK
Put plainly: Effect of sulfhydryl reagents on spHAS activity in E. coli membranes. As to conditions: for Inhibition of HAS Activity (% relative to control), spHAS: E. coli membranes with spHAS-H6, 4° C. 1 h, 5 mM NEM, 5 mM IAA, 0.5 mM 5,5′-dithiobis-(2-nitrobenzoic acid), 0.05 mM methylmethanethiosulfonate, 10 mM sodium arsenite. Type of data set: biochemical. As to the method: as §1, §2, §3

In data set [3] the test system is wild-type seHAS. Briefly: Utilization of UDP-GlcUA and UDP-GlcNAc by wild-type seHAS after NEM or sodium arsenite treatment. Type of data set: biochemical, Streptococcus equisimilis. As to conditions: membranes 4° C. 1 h with 5 mM NEM or 10 mM sodium arsenite. As to the method: FIG. 3. Effect of NEM or sodium arsenite treatment on the utilization of UDP-GIcUA and UDP-GIcNAc by wild-type seHAS. E. coli membranes containing seHAS protein were incubated at 4° C. for 1 h in PBS containing 5 mM NEM or 10 mM Sodium Arsenite (SodArs), and the control membranes were incubated with PBS alone. Michaelis-Menten constants (Km) were calculated from the activities of seHAS at varying concentrations of UDP-GIcUA or UDP-GIcNAc.
Modification of the protein by NEM could affect any one or several of the six discrete functions that HAS must perform in order to synthesize HA. In order to determine if one of the nucleotide-sugar binding sites was affected by NEM, we examined the UDP-GIcUA and UDP-GIcNAc saturation profiles for treated and untreated seHAS (FIG. 3 and Table III).
E. coli SURE cells transformed with plasmids containing various seHAS mutants were grown in LB medium with vigorous shaking at 32° C. to A600 ˜0.8 and induced with 1 mM isopropyl-β-thiogalactoside for 3 h. Cells were harvested and membranes were prepared as described previously. The kinetic constants for HAS were determined at 37° C. in 100 μl of 50 mM sodium and potassium phosphate, pH 7.0, with 20 mM MgCl2, 1 mM DTE, 240 μM UDP-GIcUA, 0.7 μM UDP-[^14C]GIcUA and 0.6–1.0 mM UDP-GIcNAc. in 100 μl of 25 mM sodium and potassium phosphate, pH 7, containing 50 mM NaCl, 20 mM MgCl2, 1 mM dithiothreitol, 1 mM UDP-GIcUA, 0.68 μM UDP-GIcUA and 1 mM UDP-GIcNAc. Some assays also contained 0.1 mM EDTA and 20% glycerol (v/v). To initiate the enzyme reaction, ˜0.5–40 μg of membrane protein was added and the mixtures were gently shaken in a MicroMixer X-36 (Tiatec) at 30° C. for 1–2 h. Reactions were terminated by the addition of SDS to a final concentration of 2% (w/v). The incorporation of radioactive [^14C]GIcUA was determined by descending paper chromatography and the Km and Vmax values were determined as described by Tlapak-Simmons et al (1999b). Data were analyzed by the methods of Michaelis-Menton or Hill. Protein content was determined by the method of Bradford using bovine serum albumin as the standard. All Cys-mutant or sulfhydryl-treated seHAS samples were assayed in duplicate or triplicate using two or three independent membrane preparations. Results are presented as the mean±standard errors. All enzyme assays were performed under conditions that were linear with respect to time and protein concentration. None of the seHAS variant enzymes were unstable under the conditions employed.

In data set [4] the test system is seHAS. It is filed as biochemical, Streptococcus equisimilis. As to conditions: for Hill number: seHAS variants, UDP-GlcNAc utilization. The method, then: as §2

Consider `O=C(O)c1cc(SSc2ccc([N+](=O)[O-])c(C(=O)O)c2)ccc1[N+](=O)[O-]` [5,5′-dithiobis-(2-nitrobenzoic acid)], for which the “Inhibition of HAS Activity (% relative to control), seHAS” value in data set [1] is 52 ± 6.5%. Moreover, in data set [2], the “Inhibition of HAS Activity (% relative to control), spHAS” value is reported as 52 ± 4.9%.
For the molecule `O=C(O)CI` [Iodacetic acid], the “Inhibition of HAS Activity (% relative to control), seHAS” value in data set [1] is recorded as 15%. Besides, the “Inhibition of HAS Activity (% relative to control), spHAS” value in data set [2] came to 13 ± 5.4%.
For the molecule `CSS(C)(=O)=O` [Methylmethanethiosulfonate], the figures for the “Inhibition of HAS Activity (% relative to control), seHAS” value in data set [1] and in data set [1] (listed as methylmethanethiosulfonate) were 93 ± 5.4% and greater than 93%, respectively. For the same molecule, the “Inhibition of HAS Activity (% relative to control), spHAS” value in data set [2] is 89 ± 5.5%.
With `O=[As]O` [Sodium Arsenite], the “Inhibition of HAS Activity (% relative to control), seHAS” value in data set [1] is listed as 40 ± 4.0%. In addition, in data set [3], the “Vmax of treated wild-type seHAS, UDP-GlcNAc” value was found to be 9.5 ± 1.1 nmol/µg/h and the “Vmax of treated wild-type seHAS, UDP-GlcUA” value amounted to 9.5 ± 1.1 nmol/µg/h. Also, in data set [3] (read-out: Km for UDP-GlcNAc of treated wild-type seHAS), the Michaelis-Menten constant (Km) – broadly, the substrate concentration at which the rate is half of its maximum – turned out to be 112 ± 38 µM. Also, the Michaelis-Menten constant (Km) in data set [3] (read-out: Km for UDP-GlcUA of treated wild-type seHAS) is 67 ± 23 µM. Besides, in data set [2] (read-out: Inhibition of HAS Activity (% relative to control), spHAS), the inhibition – broadly, the relative decrease from the control value, in per cent – at 10000 µM was determined as 46 ± 5.1%.

B1: WT: wild-type Streptococcus equisimilis hyaluronan synthase (seHAS-His6), SEQ ID NO:2 (protein, listed as Streptococcus equisimilis)
chain: MRTLKNLITVVAFSIFWVLLIYVNVYLFGAKGSLSIYGFLLIAYLLVKMSLSFFYKPFKGRAGQYKVAAIIPSYNEDAESLLETLKSVQQQTYPLAEIYVVDDGSADETGIKRIEDYVRDTGDLSSNVIVHRSEKNQGKRHAQAWAFERSDADVFLTVDSDTYIYPDALEELLKTFNDPTVFAATGHLNVRNRQTNLLTRLTDIRYDNAFGVERAAQSVTGNILVCSGPLSVYRREVVVPNIDRYINQTFLGIPVSIGDDRCLTNYATDLGKTVYQSTAKCITDVPDKMSTYLKQQNRWNKSFFRESIISVKKIMNNPFVALWTILEVSMFMMLVYSVVDFFVGNVREFDWLRVLAFLVIIFIVALCRNIHYMLKHPLSFLLSPFYGVLHLFVLQPLKLYSLFTIRNADWGTRKKLL
modifications: His6 tag
Consider B1, for which the Vmax in data set [4] (seHAS variants in membranes from E. coli SURE cells) is given as 5.60 ± 0.48 nmol/pmol/h. The Michaelis constant (Km) in data set [4] (seHAS variants in membranes from E. coli SURE cells, read-out: Km for UDPGlcNAc) is 74 ± 7 µM; in data set [4] (seHAS variants in membranes from E. coli SURE cells, read-out: Km for UDPGlcUA), 77 ± 5 µM. The Hill number in data set [4] was 1.1 ± 0.1; in data set [4] (listed as wild-type), 1.0.
